Laboratory results as given in paper PMC5823406, “Vehicle development, pharmacokinetics and toxicity of the anti-invasive agent 4-fluoro-3’,4’,5’-trimethoxychalcone in rodents” (PLoS ONE, 2018).

Columns and labels:
[1] = tested on: mouse; design: method as in PMID 4962802, PMID 6379027; conditions: PO; cited from earlier work
[2] = Whole blood stability; format: in vitro ADME, rat; conditions: fresh whole blood, male Sprague-Dawley rat blood, read-out: Compound remaining (% of 0 min)
Description: C16 (1 μM) or vehicle (DMSO) were incubated with fresh rat blood (Sprague Dawley, male) at 37°C at 5 time points in duplicate over a 120-min period. The final DMSO concentration in the incubation was 0.25%. Reactions were terminated following 0, 15, 30, 60 and 120 min by acetonitrile containing internal standard. The sampling plate was centrifuged (3000 rpm, 45 min, 4 °C) and the supernatants from each time point analyzed for parent compound by HPLC-MS/MS. The percentage of parent compound remaining at each time point relative to the 0-min sample was then calculated from HPLC-MS/MS peak area ratios (compound peak area/internal standard peak area).
C. Stability and metabolism
For details on ADME experiments not included underneath , please consult ref. [1].
C.A. Whole blood stability
Column: Kinetex XB-C18 column, 2.6 µm (150 x2.1 mm)
Mobile phase A: H2O + 0.1% v/v Formic Acid
Mobile phase B: MeCN + 0.1% v/v Formic Acid
Autosampler syringe volume: 100 µL
Weak wash: MeOH:H2O 1:9 v/v
Strong wash: MeOH:H2O 95:5 v/v
Table K. Gradient program.
Mass spectrometric conditions
Model: AB Sciex API5500 QTrap
Mode: Multiple ion monitoring (MIM)
Table L. MIM (parent to parent transitions).
The areas and percentages for the parent and metabolites have been calculated using MIM data where parent to parent transitions have been used, and assume that each metabolite has the same point of ionisation and the sensitivity of the metabolite has not been affected by the biotransformation.

| remaining at 15 min, 1 µM ([2]; 15 min) [%] | remaining at 30 min, 1 µM ([2]; 30 min) [%] | remaining at 60 min, 1 µM ([2]; 60 min) [%] | remaining at 120 min, 1 µM ([2]; 120 min) [%] | Compound | LD50 [1] [mg/kg] |
| --- | --- | --- | --- | --- | --- |
|  |  |  |  | C[S+](C)[O-] [DMSO, dimethyl sulfoxide] | 21000 to 28000 |
| 99.9 | 91.1 | 74.3 | 45.5 | COc1ccc([C@@H]2Sc3ccccc3N(CCN(C)C)C(=O)[C@@H]2OC(C)=O)cc1 [diltiazem, reference compound] |  |
